Reference: patent US11891387B2, “Monoacylglycerol lipase modulators” (Janssen Pharmaceutica NV, priority 2020, dated 2024)

Biological target: human MGL from HeLa cells (Homo sapiens (Human), UniProt Q99685)
Experiment: MGL in vitro activity assay: cleavage of [glycerol-1,3-3H]-oleyl glycerol, activated carbon filtration
Format: biochemical
Conditions: 300 nM [Glycerol-1,3-3H]-oleyl glycerol, endogenously expressed MGL from HeLa cells, one hour incubation
Procedure: The assay used to measure the in vitro activity of MGL is adapted from the assay used for another serine hydrolase (FAAH) described in Wilson et al., 2003 (A high-throughput-compatible assay for determining the activity of fatty acid amide hydrolase. Wilson S J, Lovenberg T W, Barbier A J. Anal Biochem. 2003 Jul. 15; 318(2):270-5.). The assay consists of combining endogenously expressed MGL from HeLa cells with test compounds, adding [glycerol-1,3-^3H]-oleyl glycerol, incubating for one hour, and then measuring the amount of cleaved [1,3-^3H]-glycerol that passes through an activated carbon filter. The amount of cleaved, tritiated glycerol passing through the carbon filter is proportional to the activity of the MGL enzyme in a particular well/test condition.
Standard conditions for this assay combine 300 nM [Glycerol-1,3-^3H]-oleyl glycerol with human MGL from HeLa cells and test compounds for one hour, after which the reaction is filtered through activated carbon and tritium is measured in the flow through. The test compound concentration in screening mode is 10 μM, while the highest compound concentration in IC50 assays is determined empirically. MGL is the predominant hydrolase in HeLa cells/cell homogenates.

Chain of human MGL from HeLa cells (Q99685 whole entry): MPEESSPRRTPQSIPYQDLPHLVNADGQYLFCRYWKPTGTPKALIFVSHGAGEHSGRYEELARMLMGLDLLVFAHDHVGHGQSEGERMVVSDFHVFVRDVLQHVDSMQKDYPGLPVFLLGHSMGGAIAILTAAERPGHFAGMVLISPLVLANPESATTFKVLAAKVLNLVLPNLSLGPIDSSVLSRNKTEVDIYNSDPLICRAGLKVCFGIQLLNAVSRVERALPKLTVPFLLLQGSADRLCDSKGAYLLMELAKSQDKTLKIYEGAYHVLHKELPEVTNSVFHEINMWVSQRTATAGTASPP

IC50 [nM]	SMILES
35	Cc1ccc2c(C(=O)N3CCc4c(nn(C)c4-c4cc(C(F)(F)F)nn4C)[C@@H]3C)cccc2n1 [Example 1, (S)-(2,7-Dimethyl-3-(1-methyl-3-(trifluoromethyl)-1H-pyrazol-5-yl)-2,4,5,7-tetrahydro-6H-pyrazolo[3,4-c]pyridin-6-yl)(2-methylquinolin-5-yl)methanone]
10000	COc1cccc(C(=O)N2CCc3c(nn(C)c3-c3c(C)cnn3C)[C@@H]2C)c1C [Example 2, (S)-(3-(1,4-Dimethyl-1H-pyrazol-5-yl)-2,7-dimethyl-2,4,5,7-tetrahydro-6H-pyrazolo[3,4-c]pyridin-6-yl)(3-methoxy-2-methylphenyl)methanone]
6700	COc1cccc(C(=O)N2CCc3c(nn(C)c3-c3c(C(F)(F)F)nn(C)c3C)[C@@H]2C)c1C [Example 3, (S)-(3-(1,5-Dimethyl-3-(trifluoromethyl)-1H-pyrazol-4-yl)-2,7-dimethyl-2,4,5,7-tetrahydro-6H-pyrazolo[3,4-c]pyridin-6-yl)(3-methoxy-2-methylphenyl)methanone]
20	C[C@H]1c2nn(C)c(-c3cc(C(F)(F)F)nn3C)c2CCN1C(=O)c1cccc(N2CC3(COC3)C2)c1Cl [Example 4, (S)-(2-Chloro-3-(2-oxa-6-azaspiro[3.3]heptan-6-yl)phenyl)(2,7-dimethyl-3-(1-methyl-3-(trifluoromethyl)-1H-pyrazol-5-yl)-2,4,5,7-tetrahydro-6H-pyrazolo[3,4-c]pyridin-6-yl)methanone]
37	C[C@H]1c2nn(C)c(-c3cc(C(F)(F)F)nn3C)c2CCN1C(=O)c1c[nH]c2cccc(F)c12 [Example 5, (S)-(2,7-dimethyl-3-(1-methyl-3-(trifluoromethyl)-1H-pyrazol-5-yl)-2,4,5,7-tetrahydro-6H-pyrazolo[3,4-c]pyridin-6-yl)(4-fluoro-1H-indol-3-yl)methanone]
37	C[C@H]1c2nn(C)c(-c3cc(C(F)(F)F)nn3C)c2CCN1C(=O)c1nn(C)c2ccccc12 [Example 6, (S)-(2,7-Dimethyl-3-(1-methyl-3-(trifluoromethyl)-1H-pyrazol-5-yl)-2,4,5,7-tetrahydro-6H-pyrazolo[3,4-c]pyridin-6-yl)(1-methyl-1H-indazol-3-yl)methanone]
50	Cc1cccn2ncc(C(=O)N3CCc4c(nn(C)c4-c4cc(C(F)(F)F)nn4C)[C@@H]3C)c12 [Example 7, (S)-(2,7-Dimethyl-3-(1-methyl-3-(trifluoromethyl)-1H-pyrazol-5-yl)-2,4,5,7-tetrahydro-6H-pyrazolo[3,4-c]pyridin-6-yl)(4-methylpyrazolo[1,5-a]pyridin-3-yl)methanone]
8.9	Cc1cccc2ncc(C(=O)N3CCc4c(nn(C)c4-c4cc(C(F)(F)F)nn4C)[C@@H]3C)n12 [Example 8, (S)-(2,7-Dimethyl-3-(1-methyl-3-(trifluoromethyl)-1H-pyrazol-5-yl)-2,4,5,7-tetrahydro-6H-pyrazolo[3,4-c]pyridin-6-yl)(5-methylimidazo[1,2-a]pyridin-3-yl)methanone]
12	Cc1cc(C(=O)N2CCc3c(nn(C)c3-c3cc(C(F)(F)F)nn3C)[C@@H]2C)c2ccccc2n1 [Example 9, (S)-(2,7-Dimethyl-3-(1-methyl-3-(trifluoromethyl)-1H-pyrazol-5-yl)-2,4,5,7-tetrahydro-6H-pyrazolo[3,4-c]pyridin-6-yl)(2-methylquinolin-4-yl)methanone]
18	Cc1cc(C(=O)N2CCc3c(nn(C)c3-c3cc(C(F)(F)F)nn3C)[C@@H]2C)c2cc(F)ccc2n1 [Example 10, (S)-(2,7-Dimethyl-3-(1-methyl-3-(trifluoromethyl)-1H-pyrazol-5-yl)-2,4,5,7-tetrahydro-6H-pyrazolo[3,4-c]pyridin-6-yl)(6-fluoro-2-methylquinolin-4-yl)methanone]
6.2	C[C@H]1c2nn(C)c(-c3cc(C(F)(F)F)nn3C)c2CCN1C(=O)c1cnn2cccc(F)c12 [Example 11, (S)-(2,7-Dimethyl-3-(1-methyl-3-(trifluoromethyl)-1H-pyrazol-5-yl)-2,4,5,7-tetrahydro-6H-pyrazolo[3,4-c]pyridin-6-yl)(4-fluoropyrazolo[1,5-a]pyridin-3-yl)methanone]
100	C[C@H]1c2nn(C)c(-c3cc(C(F)(F)F)nn3C)c2CCN1C(=O)c1ccnc2c1ccn2CC(F)(F)F [Example 12, (S)-(2,7-Dimethyl-3-(1-methyl-3-(trifluoromethyl)-1H-pyrazol-5-yl)-2,4,5,7-tetrahydro-6H-pyrazolo[3,4-c]pyridin-6-yl)(1-(2,2,2-trifluoroethyl)-1H-pyrrolo[2,3-b]pyridin-4-yl)methanone]
220	Cc1nc2ccccc2cc1C(=O)N1CCc2c(nn(C)c2-c2cc(C(F)(F)F)nn2C)[C@@H]1C [Example 13, (S)-(2,7-Dimethyl-3-(1-methyl-3-(trifluoromethyl)-1H-pyrazol-5-yl)-2,4,5,7-tetrahydro-6H-pyrazolo[3,4-c]pyridin-6-yl)(2-methylquinolin-3-yl)methanone]
15	COc1ccc(C(=O)N2CCc3c(nn(C)c3-c3cc(C(F)(F)F)nn3C)[C@@H]2C)c2cccnc12 [Example 14, (S)-(2,7-Dimethyl-3-(1-methyl-3-(trifluoromethyl)-1H-pyrazol-5-yl)-2,4,5,7-tetrahydro-6H-pyrazolo[3,4-c]pyridin-6-yl)(8-methoxyquinolin-5-yl)methanone]
56	Cc1cc(C(=O)N2CCc3c(nn(C)c3-c3cc(C(F)(F)F)nn3C)[C@@H]2C)c2cnn(C)c2n1 [Example 15, (S)-(1,6-Dimethyl-1H-pyrazolo[3,4-b]pyridin-4-yl)(2,7-dimethyl-3-(1-methyl-3-(trifluoromethyl)-1H-pyrazol-5-yl)-2,4,5,7-tetrahydro-6H-pyrazolo[3,4-c]pyridin-6-yl)methanone]
370	COc1nn(C)cc1-c1c2c(nn1C)[C@H](C)N(C(=O)c1ccc3ncccc3c1)CC2 [Example 16, (S)-(3-(3-Methoxy-1-methyl-1H-pyrazol-4-yl)-2,7-dimethyl-2,4,5,7-tetrahydro-6H-pyrazolo[3,4-c]pyridin-6-yl)(quinolin-6-yl)methanone]
20	C[C@H]1c2nn(C)c(-c3cc(C(F)(F)F)nn3C)c2CCN1C(=O)c1cnn2cc(F)cc(F)c12 [Example 17, (S)-(4,6-Difluoropyrazolo[1,5-a]pyridin-3-yl)(2,7-dimethyl-3-(1-methyl-3-(trifluoromethyl)-1H-pyrazol-5-yl)-2,4,5,7-tetrahydro-6H-pyrazolo[3,4-c]pyridin-6-yl)methanone]
360	C[C@H]1c2nn(C)c(-c3cc(C(F)(F)F)nn3C)c2CCN1C(=O)c1cnc2cc(F)cc(F)c2c1 [Example 18, (S)-(5,7-Difluoroquinolin-3-yl)(2,7-dimethyl-3-(1-methyl-3-(trifluoromethyl)-1H-pyrazol-5-yl)-2,4,5,7-tetrahydro-6H-pyrazolo[3,4-c]pyridin-6-yl)methanone]

SMILES	IC50 [nM]
Cc1ccc(C(=O)N2[C@@H]3CCC[C@H]2c2nn(C)c(-c4cc(C)nn4C)c2C3)c(F)c1 (stereo in doubt) [Example 72, ((5R,9S)-3-(1,3-Dimethyl-1H-pyrazol-5-yl)-2-methyl-4,5,6,7,8,9-hexahydro-2H-5,9-epiminocycloocta[c]pyrazol-10-yl)(2-fluoro-4-methylphenyl)methanone]	1130
COc1cccc(C(=O)N2[C@@H]3CCC[C@H]2c2nn(C)c(-c4cc(C)nn4C)c2C3)c1C (stereo in doubt) [Example 73, ((5R,9S)-3-(1,3-Dimethyl-1H-pyrazol-5-yl)-2-methyl-4,5,6,7,8,9-hexahydro-2H-5,9-epiminocycloocta[c]pyrazol-10-yl)(3-methoxy-2-methylphenyl)methanone]	230
COc1cccc(C(=O)N2[C@@H]3CCC[C@H]2c2nn(C)c(-c4cc(C(F)(F)F)nn4C)c2C3)c1C (stereo in doubt) [Example 74, (3-Methoxy-2-methylphenyl)((5R,9S)-2-methyl-3-(1-methyl-3-(trifluoromethyl)-1H-pyrazol-5-yl)-4,5,6,7,8,9-hexahydro-2H-5,9-epiminocycloocta[c]pyrazol-10-yl)methanone]	19
Cn1nc(C(F)(F)F)cc1-c1c2c(nn1C)[C@@H]1CCC[C@H](C2)N1C(=O)c1ccc2c(c1)OCCC2 (stereo in doubt) [Example 75, Chroman-7-yl((5R,9S)-2-methyl-3-(1-methyl-3-(trifluoromethyl)-1H-pyrazol-5-yl)-4,5,6,7,8,9-hexahydro-2H-5,9-epiminocycloocta[c]pyrazol-10-yl)methanone]	44
Cc1cccc(C(=O)N2[C@@H]3CCC[C@H]2c2nn(C)c(-c4cc(C(F)(F)F)nn4C)c2C3)c1 (stereo in doubt) [Example 76, ((5R,9S)-2-Methyl-3-(1-methyl-3-(trifluoromethyl)-1H-pyrazol-5-yl)-4,5,6,7,8,9-hexahydro-2H-5,9-epiminocycloocta[c]pyrazol-10-yl)(m-tolyl)methanone]	68
COc1cc(C)cc(C(=O)N2[C@@H]3CCC[C@H]2c2nn(C)c(-c4cc(C(F)(F)F)nn4C)c2C3)c1 (stereo in doubt) [Example 77, (3-Methoxy-5-methylphenyl)((5R,9S)-2-methyl-3-(1-methyl-3-(trifluoromethyl)-1H-pyrazol-5-yl)-4,5,6,7,8,9-hexahydro-2H-5,9-epiminocycloocta[c]pyrazol-10-yl)methanone]	26
